In publication PMC7413254 (Nature Communications, 2020):
Read-outs that look alike come from different tables or passages of the source.

Experiments:
non-expressing oocytes [1] = assay type: cell-based, Xenopus laevis; details: total [3H]CQ transport; for Uptake of [3H]CQ (% non-expressing oocyte control), trans-stimulation: non-expressing oocytes, normalised to the oocyte type control; for Uptake of [3H]CQ (% PfCRTDd2 control), trans-stimulation, non-expressing oocytes: mean ± SEM, SEM
Summary of the method: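 Oocytes (ten per treatment, ≥4 independent frogs/days) were preloaded by injecting VF-6 in 25 nL ND96 at pH 5.0, 5.5, 6.0 or 7.0, or Na^+-free choline buffer, then uptake run 1.5 h, 27.5 °C, ND96 pH 5.5 by default. Internal concentrations assumed ~400 nL oocyte volume.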

non-expressing oocytes [2] = test: cells; assay type: cell-based, Xenopus laevis; details: Xenopus laevis, total [3H]CQ transport; for inhibition at 500 µM: [test solute] = 0.5 mM; for inhibition at 1000 µM: [test solute] = 1 mM; for inhibition at 2000 µM: [test solute] = 2 mM
Summary of the method: (§1)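 Oocytes expressing PfCRT isoforms, or non-expressing controls, were incubated 1.5 h at 27.5 °C in ND96 buffer pH 5.5 (96 mM NaCl, 2 mM KCl, 1 mM MgCl2, 1.8 mM CaCl2, 10 mM MES, 10 mM Tris-base), measuring uptake from acidic medium into cytosol. Oocytes were washed ice-cold, SDS-lysed and counted by scintillation.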

PfCRT [3] = test: Influx of VF-6 via PfCRT into the oocyte, solutes tested as potential co-substrates; assay type: cell-based, Plasmodium falciparum; parameters: key: X: Compounds that have been tested as potential co-substrates but are not required for influx of VF-6 via PfCRT into the oocyte; details: X marks the solute
PfCRT [4] = test: Potential co-substrates tested for influx of VF-6 via PfCRT into the oocyte; assay type: cell-based, Plasmodium falciparum; parameters: key: X: Compounds that have been tested as potential co-substrates but are not required for influx of VF-6 via PfCRT into the oocyte
PfCRT^3D7 = PfCRT^3D7 (Plasmodium falciparum, UniProt Q8IBZ9); test: cell-based; assay type: cell-based; details: total [3H]CQ transport; for inhibition at 500 µM: [test solute] = 0.5 mM; for inhibition at 1000 µM: [test solute] = 1 mM; for inhibition at 2000 µM: [test solute] = 2 mM
Sequence of PfCRT^3D7 (Q8IBZ9 59-398): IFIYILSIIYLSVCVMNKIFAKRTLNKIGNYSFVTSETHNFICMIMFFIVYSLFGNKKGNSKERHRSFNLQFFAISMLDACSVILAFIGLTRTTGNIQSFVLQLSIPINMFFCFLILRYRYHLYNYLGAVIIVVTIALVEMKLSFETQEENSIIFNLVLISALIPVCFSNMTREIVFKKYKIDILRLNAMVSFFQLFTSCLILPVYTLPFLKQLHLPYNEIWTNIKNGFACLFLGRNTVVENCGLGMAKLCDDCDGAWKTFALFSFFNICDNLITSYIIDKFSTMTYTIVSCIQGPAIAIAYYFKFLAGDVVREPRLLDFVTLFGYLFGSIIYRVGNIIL
Summary of the method: as §1

PfCRT^Dd2 = PfCRT^Dd2 (Plasmodium falciparum, UniProt Q9N623, A220S/I356T/K76T/M74I/N326S/N75E/Q271E/R371I); test: [3H]CQ uptake into Xenopus oocytes, cis-inhibition by unlabelled solute; assay type: cell-based
Sequence of PfCRT^Dd2 (Q9N623 whole entry A220S/I356T/K76T/M74I/N326S/N75E/Q271E/R371I): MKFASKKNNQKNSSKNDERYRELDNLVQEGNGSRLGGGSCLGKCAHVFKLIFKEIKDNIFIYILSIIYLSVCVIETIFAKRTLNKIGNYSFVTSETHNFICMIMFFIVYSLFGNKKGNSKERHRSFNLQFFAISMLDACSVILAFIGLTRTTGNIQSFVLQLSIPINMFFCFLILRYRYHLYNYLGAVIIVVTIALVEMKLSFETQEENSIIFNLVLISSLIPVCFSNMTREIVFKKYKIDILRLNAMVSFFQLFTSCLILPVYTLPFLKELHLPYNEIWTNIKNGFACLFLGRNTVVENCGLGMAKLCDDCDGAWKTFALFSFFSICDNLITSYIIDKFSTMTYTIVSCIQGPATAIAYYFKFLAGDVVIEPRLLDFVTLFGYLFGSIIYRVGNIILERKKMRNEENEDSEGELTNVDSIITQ
Summary of the method: as §1

PfCRT^Ecu1110 = PfCRT^Ecu1110 (Plasmodium falciparum, UniProt Q9N623, A220S/I356L/K76T/N326D); test: as above; assay type: cell-based; details: read-out: PfCRT-mediated [3H]CQ transport, cis-inhibition (% PfCRTEcu1110 control)
Sequence of PfCRT^Ecu1110 (Q9N623 whole entry A220S/I356L/K76T/N326D): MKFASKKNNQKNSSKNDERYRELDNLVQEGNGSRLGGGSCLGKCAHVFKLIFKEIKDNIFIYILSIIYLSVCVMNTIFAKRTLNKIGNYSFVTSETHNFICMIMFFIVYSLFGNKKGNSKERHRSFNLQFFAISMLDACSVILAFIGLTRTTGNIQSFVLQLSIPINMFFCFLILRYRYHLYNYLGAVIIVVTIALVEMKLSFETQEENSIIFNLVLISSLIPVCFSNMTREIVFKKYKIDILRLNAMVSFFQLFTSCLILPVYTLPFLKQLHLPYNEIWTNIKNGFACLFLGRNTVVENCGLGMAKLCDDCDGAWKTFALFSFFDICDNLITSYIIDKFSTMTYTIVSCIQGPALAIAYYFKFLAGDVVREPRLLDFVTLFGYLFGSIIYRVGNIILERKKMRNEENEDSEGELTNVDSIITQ
Summary of the method: as §1

[5] = Oocyte, mean ± SEM, SEM, read-out: Uptake of [3H]CQ (% PfCRTDd2 control), cis-inhibition, non-expressing oocytes
[6] = non-expressing oocytes, normalised to the oocyte type control, read-out: Uptake of [3H]CQ (% non-expressing oocyte control), cis-inhibition
[7] = PfCRT3D7 oocytes, normalised to the oocyte type control, read-out: Uptake of [3H]CQ (% PfCRT3D7 control), cis-inhibition
[8] = mean ± SEM, SEM, read-out: Uptake of [3H]CQ (% PfCRTDd2 control), cis-inhibition, PfCRT3D7
[9] = read-out: PfCRT-mediated [3H]CQ transport, cis-inhibition (% PfCRTDd2 control)
[10] = read-out: Uptake of [3H]CQ (% PfCRTDd2 control), cis-inhibition
[11] = read-out: Uptake of [3H]CQ (% PfCRTDd2 control), cis-inhibition, PfCRTDd2, SEM
[12] = read-out: [3H]CQ transport (% PfCRTDd2 control), cis-inhibition, PfCRTDd2, SEM

NC(=O)CC[C@H](N)C(=O)O [L-glutamine]
Uptake of [3H]CQ (% non-expressing oocyte control), trans-stimulation (non-expressing oocytes [1]; [test solute]i = 5 mM): 100 ± 3.2 % non-expressing oocyte control | Uptake of [3H]CQ (% non-expressing oocyte control), trans-stimulation (non-expressing oocytes [1]; [test solute]i = 45 mM (30 mM for some solutes due to solubility)): 98 ± 2.2 % non-expressing oocyte control | Uptake of [3H]CQ (% PfCRTDd2 control), trans-stimulation, non-expressing oocytes (non-expressing oocytes [1]; [test solute]i = 5 mM (intracellular)): 2.7 ± 0.07 % PfCRTDd2 control | Uptake of [3H]CQ (% PfCRTDd2 control), trans-stimulation, non-expressing oocytes (non-expressing oocytes [1]; [test solute]i = 45 mM (intracellular; 30 mM for some solutes due to solubility)): 2.7 ± 0.05 % PfCRTDd2 control | inhibition at 500 µM (non-expressing oocytes [2]; [5]): 3.2 ± 0.07% | inhibition at 1000 µM (non-expressing oocytes [2]; [5]): 2.7 ± 0.05% | inhibition at 2000 µM (non-expressing oocytes [2]; [5]): 2.2 ± 0.03% | inhibition at 500 µM (non-expressing oocytes [2]; [6]): 99 ± 3.2% | inhibition at 1000 µM (non-expressing oocytes [2]; [6]): 100 ± 6.3% | inhibition at 2000 µM (non-expressing oocytes [2]; [6]): 98 ± 3.5% | Compounds that have been tested as potential co-substrates but are not required for influx of VF-6 via PfCRT into the oocyte (PfCRT [3]): X | Tested as potential co-substrate but not required for influx of VF-6 via PfCRT into the oocyte (PfCRT [4]): X | inhibition at 500 µM (PfCRT^3D7; [7]): 101 ± 4.8% | inhibition at 1000 µM (PfCRT^3D7; [7]): 99 ± 3.6% | inhibition at 2000 µM (PfCRT^3D7; [7]): 99 ± 4.7% | inhibition at 500 µM (PfCRT^3D7; [8]): 2.6 ± 0.04% | inhibition at 1000 µM (PfCRT^3D7; [8]): 2.1 ± 0.01% | inhibition at 2000 µM (PfCRT^3D7; [8]): 2.6 ± 0.04% | inhibition at 500 µM (PfCRT^Dd2; [9]): 98 ± 2.8% | inhibition at 1000 µM (PfCRT^Dd2; [9]): 98 ± 3.6% | inhibition at 2000 µM (PfCRT^Dd2; [9]): 95 ± 5.5% | inhibition at 500 µM (PfCRT^Dd2; [10]): 100 ± 4.9% | inhibition at 1000 µM (PfCRT^Dd2; [10]): 100 ± 5.2% | inhibition at 500 µM (PfCRT^Dd2; [11]): 100 ± 4.9% | inhibition at 1000 µM (PfCRT^Dd2; [11]): 100 ± 5.2% | inhibition at 2000 µM (PfCRT^Dd2; [11]): 97 ± 8.3% | inhibition at 500 µM (PfCRT^Dd2; [12]): 98 ± 2.8% | inhibition at 1000 µM (PfCRT^Dd2; [12]): 98 ± 3.6% | inhibition at 1000 µM (PfCRT^Ecu1110): 95 ± 3.5% | inhibition at 2000 µM (PfCRT^Ecu1110): 96 ± 6.2%
